Measured values taken from the supplement of paper PMC10307832.

What was measured:
Experiment in all cases: relative viability (nuclei count vs DMSO), 5 days (fraction); higher = more cells survive
ABC-1 = test system: ABC-1
Outline: (§1)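 Medians of duplicate plates are given as relative viability. That measure is the nuclei count in treated wells divided by the count in vehicle wells. Counts were taken on 4× images of lung cancer cell lines in 1536-well plates, 5 days after pin-tool dosing the day after seeding with one drug alone or a fixed anchor-drug dose plus five library-drug doses (not always all listed) in √10 steps.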

COR-L23 = test system: COR-L23
Outline: as §1

EPLC-272H = test system: EPLC-272H
Outline: as §1

HARA = test system: HARA
Outline: as §1

HCC-15 = test system: HCC-15
Outline: as §1

HCC-44 = test system: HCC-44
Outline: as §1

HOP-62 = test system: HOP-62
Outline: as §1

LC-2-ad = test system: LC-2-ad
Outline: as §1

LU99A = test system: LU99A
Outline: as §1

NCI-H1355 = test system: NCI-H1355
Outline: as §1

NCI-H1651 = test system: NCI-H1651
Outline: as §1

NCI-H1915 = test system: NCI-H1915
Outline: as §1

NCI-H1993 = test system: NCI-H1993
Outline: as §1

NCI-H2023 = test system: NCI-H2023
Outline: as §1

NCI-H2085 = test system: NCI-H2085
Outline: as §1

NCI-H2126 = test system: NCI-H2126
Outline: as §1

NCI-H2347 = test system: NCI-H2347
Outline: as §1

NCI-H650 = test system: NCI-H650
Outline: as §1

NCI-H838 = test system: NCI-H838
Outline: as §1

PC-14 = test system: PC-14
Outline: as §1

SW 1573 = test system: SW 1573
Outline: as §1

UMC-11 = test system: UMC-11
Outline: as §1

SMILES: Nc1ccn([C@@H]2O[C@H](CO)[C@@H](O)[C@@H]2O)c(=O)n1 [Cytarabine] + CS(=O)(=O)CCNCc1ccc(-c2ccc3ncnc(Nc4ccc(OCc5cccc(F)c5)c(Cl)c4)c3c2)o1 [Lapatinib] (partner 2 µM)
- relative viability (ABC-1; first compound 0.005 µM): 1.29
- relative viability (ABC-1; first compound 0.01581 µM): 1.24
- relative viability (ABC-1; first compound 0.1581 µM): 1.16
- relative viability (ABC-1; first compound 0.5 µM): 1.03
- relative viability (COR-L23; first compound 0.005 µM): 0.892
- relative viability (COR-L23; first compound 0.01581 µM): 0.668
- relative viability (COR-L23; first compound 0.05 µM): 0.921
- relative viability (COR-L23; first compound 0.1581 µM): 0.235
- relative viability (COR-L23; first compound 0.5 µM): 0.138
- relative viability (EPLC-272H; first compound 0.005 µM): 0.717
- relative viability (EPLC-272H; first compound 0.01581 µM): 0.756
- relative viability (EPLC-272H; first compound 0.05 µM): 0.592
- relative viability (EPLC-272H; first compound 0.1581 µM): 0.315
- relative viability (EPLC-272H; first compound 0.5 µM): 0.417
- relative viability (HARA; first compound 0.005 µM): 0.692
- relative viability (HARA; first compound 0.01581 µM): 0.51
- relative viability (HARA; first compound 0.05 µM): 0.365
- relative viability (HARA; first compound 0.1581 µM): 0.189
- relative viability (HARA; first compound 0.5 µM): 0.132
- relative viability (HCC-15; first compound 0.005 µM): 0.785
- relative viability (HCC-15; first compound 0.01581 µM): 0.887
- relative viability (HCC-15; first compound 0.05 µM): 0.693
- relative viability (HCC-15; first compound 0.1581 µM): 0.615
- relative viability (HCC-15; first compound 0.5 µM): 0.639
- relative viability (HCC-44; first compound 0.005 µM): 0.93
- relative viability (HCC-44; first compound 0.01581 µM): 0.935
- relative viability (HCC-44; first compound 0.05 µM): 0.984
- relative viability (HCC-44; first compound 0.1581 µM): 0.532
- relative viability (HCC-44; first compound 0.5 µM): 0.431
- relative viability (HOP-62; first compound 0.005 µM): 0.825
- relative viability (HOP-62; first compound 0.01581 µM): 0.821
- relative viability (HOP-62; first compound 0.05 µM): 0.385
- relative viability (HOP-62; first compound 0.1581 µM): 0.134
- relative viability (HOP-62; first compound 0.5 µM): 0.0735
- relative viability (LC-2-ad; first compound 0.005 µM): 0.878
- relative viability (LC-2-ad; first compound 0.01581 µM): 0.868
- relative viability (LC-2-ad; first compound 0.05 µM): 0.926
- relative viability (LC-2-ad; first compound 0.1581 µM): 0.26
- relative viability (LC-2-ad; first compound 0.5 µM): 0.192
- relative viability (LU99A; first compound 0.005 µM): 0.974
- relative viability (LU99A; first compound 0.01581 µM): 0.968
- relative viability (LU99A; first compound 0.05 µM): 1.02
- relative viability (LU99A; first compound 0.1581 µM): 0.988
- relative viability (LU99A; first compound 0.5 µM): 0.938
- relative viability (NCI-H1355; first compound 0.005 µM): 0.884
- relative viability (NCI-H1355; first compound 0.01581 µM): 0.968
- relative viability (NCI-H1355; first compound 0.05 µM): 0.811
- relative viability (NCI-H1355; first compound 0.1581 µM): 0.66
- relative viability (NCI-H1355; first compound 0.5 µM): 0.322
- relative viability (NCI-H1651; first compound 0.005 µM): 0.801
- relative viability (NCI-H1651; first compound 0.01581 µM): 0.845
- relative viability (NCI-H1651; first compound 0.05 µM): 1.02
- relative viability (NCI-H1651; first compound 0.1581 µM): 0.421
- relative viability (NCI-H1651; first compound 0.5 µM): 0.288
- relative viability (NCI-H1915; first compound 0.005 µM): 0.868
- relative viability (NCI-H1915; first compound 0.01581 µM): 0.955
- relative viability (NCI-H1915; first compound 0.05 µM): 0.848
- relative viability (NCI-H1915; first compound 0.1581 µM): 0.393
- relative viability (NCI-H1915; first compound 0.5 µM): 0.257
- relative viability (NCI-H1993; first compound 0.005 µM): 0.71
- relative viability (NCI-H1993; first compound 0.01581 µM): 0.929
- relative viability (NCI-H1993; first compound 0.05 µM): 0.682
- relative viability (NCI-H1993; first compound 0.1581 µM): 0.618
- relative viability (NCI-H1993; first compound 0.5 µM): 0.546
- relative viability (NCI-H2023; first compound 0.005 µM): 0.515
- relative viability (NCI-H2023; first compound 0.01581 µM): 0.224
- relative viability (NCI-H2023; first compound 0.05 µM): 0.144
- relative viability (NCI-H2023; first compound 0.1581 µM): 0.0848
- relative viability (NCI-H2023; first compound 0.5 µM): 0.0542
- relative viability (NCI-H2085; first compound 0.005 µM): 0.735
- relative viability (NCI-H2085; first compound 0.01581 µM): 0.725
- relative viability (NCI-H2085; first compound 0.05 µM): 0.666
- relative viability (NCI-H2085; first compound 0.1581 µM): 0.622
- relative viability (NCI-H2085; first compound 0.5 µM): 0.374
- relative viability (NCI-H2126; first compound 0.005 µM): 0.73
- relative viability (NCI-H2126; first compound 0.01581 µM): 0.701
- relative viability (NCI-H2126; first compound 0.05 µM): 0.61
- relative viability (NCI-H2126; first compound 0.1581 µM): 0.516
- relative viability (NCI-H2126; first compound 0.5 µM): 0.449
- relative viability (NCI-H2347; first compound 0.005 µM): 1.01
- relative viability (NCI-H2347; first compound 0.01581 µM): 0.942
- relative viability (NCI-H2347; first compound 0.05 µM): 0.764
- relative viability (NCI-H2347; first compound 0.1581 µM): 0.659
- relative viability (NCI-H2347; first compound 0.5 µM): 0.825
- relative viability (NCI-H650; first compound 0.005 µM): 0.735
- relative viability (NCI-H650; first compound 0.01581 µM): 0.535
- relative viability (NCI-H650; first compound 0.05 µM): 0.363
- relative viability (NCI-H650; first compound 0.1581 µM): 0.202
- relative viability (NCI-H650; first compound 0.5 µM): 0.195
- relative viability (NCI-H838; first compound 0.005 µM): 0.926
- relative viability (NCI-H838; first compound 0.01581 µM): 0.937
- relative viability (NCI-H838; first compound 0.05 µM): 0.767
- relative viability (NCI-H838; first compound 0.1581 µM): 0.288
- relative viability (NCI-H838; first compound 0.5 µM): 0.213
- relative viability (PC-14; first compound 0.005 µM): 0.282
- relative viability (PC-14; first compound 0.01581 µM): 0.236
- relative viability (PC-14; first compound 0.05 µM): 0.273
- relative viability (PC-14; first compound 0.1581 µM): 0.17
- relative viability (PC-14; first compound 0.5 µM): 0.221
- relative viability (SW 1573; first compound 0.005 µM): 1.17
- relative viability (SW 1573; first compound 0.01581 µM): 0.879
- relative viability (SW 1573; first compound 0.05 µM): 0.952
- relative viability (SW 1573; first compound 0.1581 µM): 0.606
- relative viability (SW 1573; first compound 0.5 µM): 0.329
- relative viability (UMC-11; first compound 0.005 µM): 0.632
- relative viability (UMC-11; first compound 0.01581 µM): 0.462
- relative viability (UMC-11; first compound 0.05 µM): 0.434
- relative viability (UMC-11; first compound 0.1581 µM): 0.193
- relative viability (UMC-11; first compound 0.5 µM): 0.211
